These results are taken from US9067894B1, “Compound, composition, and method of activating GIRK potassium channel and use of same for treating conditions of interest” (Vanderbilt University, priority 2013, dated 2015).

One series deals with T1, GIRK1/3 (Homo sapiens, UniProt P48549+Q92806).
T1 construct: expressed in transfected cells; host or cells: HEK-293
Briefly: Thallium flux assay, HEK-293 cells expressing GIRK1/3. The class given is cell-based. Conditions: cell line GIRK1-3; average ± SEM. From the text:
(§1) Cell Line Construction and Cell Culture. HEK-293 cells co-expressing human GIRK1/2 and rat mGlu8 were generated as previously described (Niswender et al., 2008). A HEK-293 cell line (ATCC, Manassas, Va.) expressing human GIRK1 and human GIRK2 was constructed by transfecting HEK-293 cells with GIRK1 and GIRK2 (Origene, Rockville, Md.) cloned into the pBudCE4.1 vector (Life Technologies, Carlsbad, Calif.) using FuGene 6 (Promega, Madison, Wis.) transfection reagent. Unless otherwise noted, other ion channel-expressing cells were prepared by transfecting HEK-293 cells with individual or combinations of subunits: GIRK1, pCMV6-A-BSD; GIRK2, pCMV6-A-puro; GIRK3, pCMV6-A-hygro; GIRK4, pCMV6-A-AC; Kv7.4, pIRESneo3. The Kir2.1 and hERG-expressing cell lines were made by transfecting T-REx-293 cells (Life Technologies, Carlsbad, Calif.) with Kir2.1 and Kv11.1, respectively, cloned into pcDNA5TO. Monoclonal cell lines were produced by limiting-dilution cloning of antibiotic-resistant cells and functional selection using the thallium flux assay described below. Unless otherwise noted, cells were maintained in Minimal Essential Medium, Alpha Medium (Mediatech, Manassas, Va.) supplemented with 10% fetal bovine serum (Sigma-Aldrich, Saint Louis, Mo.) and GlutaGro (Mediatech, Manassas, Va.), referred to henceforth as cell culture medium. […]

In another series the target is T2, Kir2.1 (Homo sapiens, UniProt P63252).
T2 construct: expressed in transfected cells; host or cells: T-REx-293
In words: Thallium flux assay, Kir2.1-expressing cells. The format is cell-based.
Description: as §1

The next series can be described thus: Rotarod test. The format is in vivo, mouse. The settings on record: mice, 60 mg/kg i.p. The procedure:
For rotarod tests, a rotarod module was inserted into a mouse home cage and was operated by the SmartCage™ (AfaSci, Inc., Redwood City, Calif.) system28. A mouse was placed on the rod and the rod began to rotate at a fixed speed (15 rpm). Latencies for the mice to fall off the rod were recorded. […] Two groups of mice (n=8 mice/group) were trained on the rotarod over 4 consecutive days. On training days, each mouse was allowed to perform on the rotarod a total of 4 times. For each training day, each mouse's lowest rotarod latency was excluded. The remaining 3 rotarod latencies were averaged and served as the mouse's rotarod performance for that training day. […] Approximately 1 hour post-drug/vehicle injection, each mouse's rotarod performance was assessed a total of 4 times with the mouse's worst performance being excluded. The remaining 3 rotarod latencies were then averaged for each mouse and these values were normalized to the mouse's previous performance on the final training day to account for variation in individual animal's competency on the rotarod.

A further series concerns the target T3, Adrenergic α2A (Homo sapiens, UniProt P08913).
T3 construct: Ricerca (contract assay)
Briefly: Radioligand displacement (Ricerca). The format is binding. In general terms: Loss of bound radioactivity is the signal in a displacement assay; it reports binding, not function.

Another series concerns the target T4, Adrenergic β1 (Homo sapiens, UniProt P08588).
T4 construct: Ricerca (contract assay)
Briefly: Radioligand displacement (Ricerca). The class given is binding.

The next series deals with Glutamate (NMDA agonism). Briefly: Radioligand displacement (Ricerca). The class given is binding, rat. Conditions: 10 μM.
The target of a further series is T5, Histamine H1 (Homo sapiens, UniProt P35367).
T5 construct: Ricerca
Briefly: Radioligand displacement (Ricerca). The format is binding.

Another series deals with T6, Melatonin MT1 (Homo sapiens, UniProt P48039).
T6 construct: Ricerca (contract laboratory that ran the panel)
In words: Radioligand displacement (Ricerca). The format is binding.

Another series deals with Purinergic P2X. In words: Radioligand displacement (Ricerca). The class given is binding, rabbit. Conditions: 10 μM.
In a further series the test system is Rolipram (PDE4). Briefly: Radioligand displacement (Ricerca). The format is binding, human. Conditions: 10 μM.

T1 sequence (P48549 whole entry): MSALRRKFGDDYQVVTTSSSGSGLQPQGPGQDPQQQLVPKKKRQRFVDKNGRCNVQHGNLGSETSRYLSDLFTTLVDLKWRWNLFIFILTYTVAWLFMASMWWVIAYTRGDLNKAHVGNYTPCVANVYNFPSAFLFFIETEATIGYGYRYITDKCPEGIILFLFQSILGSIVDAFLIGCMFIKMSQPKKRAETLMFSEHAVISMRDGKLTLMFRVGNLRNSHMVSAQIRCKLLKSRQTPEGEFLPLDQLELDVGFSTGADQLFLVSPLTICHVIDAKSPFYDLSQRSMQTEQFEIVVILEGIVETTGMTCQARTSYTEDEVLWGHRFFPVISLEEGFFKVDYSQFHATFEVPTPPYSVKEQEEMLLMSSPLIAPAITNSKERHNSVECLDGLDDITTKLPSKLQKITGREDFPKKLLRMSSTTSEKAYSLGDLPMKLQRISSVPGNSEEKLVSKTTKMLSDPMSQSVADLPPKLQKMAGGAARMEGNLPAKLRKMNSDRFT
T1 sequence (Q92806 whole entry): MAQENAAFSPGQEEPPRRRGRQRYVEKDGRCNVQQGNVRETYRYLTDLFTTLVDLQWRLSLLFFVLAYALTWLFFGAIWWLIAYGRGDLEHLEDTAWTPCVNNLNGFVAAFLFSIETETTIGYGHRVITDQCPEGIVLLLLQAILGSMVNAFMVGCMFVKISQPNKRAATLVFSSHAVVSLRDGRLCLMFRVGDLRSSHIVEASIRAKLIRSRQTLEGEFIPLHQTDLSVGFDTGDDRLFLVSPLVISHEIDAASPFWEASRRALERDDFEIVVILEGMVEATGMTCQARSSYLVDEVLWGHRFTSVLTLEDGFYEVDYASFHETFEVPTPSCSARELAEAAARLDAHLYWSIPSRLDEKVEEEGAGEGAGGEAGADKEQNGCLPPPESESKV
T2 sequence (P63252 whole entry): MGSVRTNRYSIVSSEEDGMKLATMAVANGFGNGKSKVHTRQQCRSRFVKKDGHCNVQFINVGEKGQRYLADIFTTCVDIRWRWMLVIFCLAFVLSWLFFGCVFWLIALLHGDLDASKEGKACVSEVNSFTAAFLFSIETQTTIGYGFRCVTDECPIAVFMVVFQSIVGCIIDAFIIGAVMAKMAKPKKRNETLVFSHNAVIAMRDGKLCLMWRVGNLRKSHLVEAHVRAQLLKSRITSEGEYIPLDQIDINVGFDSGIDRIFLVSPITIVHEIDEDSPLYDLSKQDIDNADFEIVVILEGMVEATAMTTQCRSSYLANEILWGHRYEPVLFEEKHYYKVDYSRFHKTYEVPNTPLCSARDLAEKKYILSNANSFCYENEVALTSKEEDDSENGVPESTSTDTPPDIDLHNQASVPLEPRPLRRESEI
T5 sequence (P35367 whole entry): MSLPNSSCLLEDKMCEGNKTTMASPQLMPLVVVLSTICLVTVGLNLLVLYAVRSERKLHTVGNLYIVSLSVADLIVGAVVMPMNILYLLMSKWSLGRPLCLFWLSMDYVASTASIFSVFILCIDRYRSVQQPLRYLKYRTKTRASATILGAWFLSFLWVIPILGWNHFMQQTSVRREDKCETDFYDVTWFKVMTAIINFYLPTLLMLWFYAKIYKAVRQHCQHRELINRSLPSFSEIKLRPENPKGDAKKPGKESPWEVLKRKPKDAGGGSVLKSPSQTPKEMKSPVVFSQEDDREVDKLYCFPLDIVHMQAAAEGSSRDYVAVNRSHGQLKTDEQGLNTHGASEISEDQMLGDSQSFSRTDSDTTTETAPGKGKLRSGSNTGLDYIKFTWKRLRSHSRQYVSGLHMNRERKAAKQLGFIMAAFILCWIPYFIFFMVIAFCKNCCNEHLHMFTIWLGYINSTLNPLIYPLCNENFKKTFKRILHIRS
T6 sequence (P48039 whole entry): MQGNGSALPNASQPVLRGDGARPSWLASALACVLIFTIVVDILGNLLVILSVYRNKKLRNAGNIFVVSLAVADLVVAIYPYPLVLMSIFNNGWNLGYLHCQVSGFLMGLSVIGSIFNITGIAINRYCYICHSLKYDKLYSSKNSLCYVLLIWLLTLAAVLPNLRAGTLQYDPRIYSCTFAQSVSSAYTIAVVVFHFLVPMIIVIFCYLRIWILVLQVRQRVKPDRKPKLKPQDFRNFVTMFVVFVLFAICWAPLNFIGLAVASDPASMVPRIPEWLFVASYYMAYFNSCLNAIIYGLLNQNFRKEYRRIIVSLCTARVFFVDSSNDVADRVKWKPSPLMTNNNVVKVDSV
T3 sequence (P08913 whole entry): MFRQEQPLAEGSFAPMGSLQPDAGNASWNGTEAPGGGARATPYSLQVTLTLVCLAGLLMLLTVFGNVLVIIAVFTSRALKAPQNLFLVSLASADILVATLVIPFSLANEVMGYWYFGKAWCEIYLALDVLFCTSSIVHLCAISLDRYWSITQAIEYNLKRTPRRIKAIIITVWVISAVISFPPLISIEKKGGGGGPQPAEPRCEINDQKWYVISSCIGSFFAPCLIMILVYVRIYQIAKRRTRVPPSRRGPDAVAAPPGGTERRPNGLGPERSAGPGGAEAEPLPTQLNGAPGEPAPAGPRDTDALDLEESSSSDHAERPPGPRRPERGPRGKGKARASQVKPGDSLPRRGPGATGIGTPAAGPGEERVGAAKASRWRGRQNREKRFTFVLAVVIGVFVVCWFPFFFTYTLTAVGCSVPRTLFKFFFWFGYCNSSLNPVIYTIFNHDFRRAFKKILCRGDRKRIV
T4 sequence (P08588 whole entry): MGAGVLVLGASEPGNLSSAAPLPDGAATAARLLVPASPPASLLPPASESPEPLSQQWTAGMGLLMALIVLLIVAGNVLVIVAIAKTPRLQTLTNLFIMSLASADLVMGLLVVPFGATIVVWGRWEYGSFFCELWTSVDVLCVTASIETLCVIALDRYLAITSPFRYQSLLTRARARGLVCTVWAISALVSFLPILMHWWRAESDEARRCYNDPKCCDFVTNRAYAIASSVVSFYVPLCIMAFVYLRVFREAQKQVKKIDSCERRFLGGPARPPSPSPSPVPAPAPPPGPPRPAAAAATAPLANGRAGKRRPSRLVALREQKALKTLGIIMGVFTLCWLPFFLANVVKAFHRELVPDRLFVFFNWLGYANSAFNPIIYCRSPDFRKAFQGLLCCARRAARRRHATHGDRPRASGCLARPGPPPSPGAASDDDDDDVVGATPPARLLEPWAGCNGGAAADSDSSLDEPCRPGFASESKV

What is called EC50 is the midpoint of the concentration-response curve. The inhibition is the change of the read-out against control, counted positive when it falls. By % Inhibition is commonly meant the percentage by which the read-out fell short of the control. Lower therefore signals a response near the control. As to `Cc1cc(NC(=O)Nc2ccc(F)c(F)c2)n(-c2ccccc2)n1` [VU0456810, 1-(3,4-difluorophenyl)-3-(3-methyl-1-phenyl-1H-pyrazol-5-yl)urea], at GIRK1/3, the EC50 came out at 914 ± 264 nM. The “EC50 Thallium Flux” value at GIRK1/3 is “able to activate”. Besides, on Kir2.1, the Potency entry was “Inactive”. Further, the “rotarod performance compared to vehicle” value in “Rotarod test” is “small and insignificant decrease”. Further, the “decrease in performance on the rotarod vs vehicle” value in the series “Rotarod test” (insignificant (p=0.7)) is given as 14%. The inhibition at 10 µM on Adrenergic α2A is 4%; at Adrenergic β1 it was 0%; at Histamine H1, -7%; at Melatonin MT1 it was 11%. Further, the results for the “% Inhibition” value in the series with Glutamate (NMDA agonism), in the series with Purinergic P2X and with Rolipram (PDE4) were 21%, 16% and 11%, respectively.
